Three molecules from US9725414B2, “Fungicidal N-bicycloalkyl and N-tricycloalkyl pyrazole-4-(thio)carboxamide derivatives” (priority 2011, dated 2017) can be followed below.

For one data set, the system named is Alternaria brassicae. The data set is described as follows: Example D: in vivo preventive test on Alternaria brassicae (leaf spot on radish). As to conditions: 500 ppm of active ingredient, grading 6 days after contamination. The protocol: In Vivo Preventive Test on Alternaria brassicae (Leaf Spot on Radish) […] Radish plants (“Pernod Clair” variety), sown in starter cups on a 50/50 peat soil pozzolana substrate and grown at 17° C., are treated at the cotyledon stage by spraying with the active ingredient prepared as described above. Plants, used as controls, are treated with the mixture of acetone/tween/DMSO/water not containing the active material. After 24 hours, the plants are contaminated by spraying the cotyledons with an aqueous suspension of Alternaria brassicae spores (50 000 spores per mL). The spores are collected from a 15-day-old culture. The contaminated radish plants are incubated at 20° C. and at 100% relative humidity. Grading (% of efficacy) is carried out 6 days after the contamination, in comparison with the control plants.

Data set [1] can be described thus: log P by HPLC on reversed-phase column (C 18), EEC Directive 79831 Annex V.A8. Format: physicochemical. As to conditions: HPLC reversed-phase C 18, 40° C., 0.1% aqueous formic acid and acetonitrile gradient; several values = mixture of two or more isomers. The method in brief:
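Reversed-phase C18 HPLC at 40° C, 0.1% aqueous formic acid/acetonitrile linear gradient 10% to 90% acetonitrile, per EEC Directive 79831 Annex V.A8. log P obtained from retention time by linear interpolation between unbranched alkan-2-ones (C3-C16) of known log P.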

A further data set deals with Pyricularia oryzae. In kind it is in vivo. As to conditions: Pyricularia oryzae on rice plants, preventive, 500 ppm of active ingredient, grading 6 days after contamination.
In another data set the test system is Botrytis cinerea. As to the kind of experiment: Example P: in vivo preventive test on Botrytis cinerea (grey mould), gherkin plants. As to conditions: 500 ppm of active ingredient, grading 4 to 5 days after contamination. In a few lines:
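Gherkin plants at Z11 cotyledon stage sprayed preventively with active ingredient, then inoculated 24 h later with B. cinerea spores (50 000/mL) in PDB/fructose nutrient solution. Incubation at 17 °C and 90% RH; % efficacy graded 4–5 days post-inoculation against solvent-treated controls.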

The subject of the next data set is Puccinia recondita. As to the kind of experiment: Example M: in vivo preventive test on Puccinia recondita (brown rust on wheat). As to conditions: 500 ppm of active ingredient, grading 12 days after contamination. The method in brief: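 Wheat (Scipion) sprayed with compound at 1-leaf stage, grown at 22° C. Inoculated 24 h later with a spore suspension at 100 000 spores per mL. Efficacy (%) graded 12 days after inoculation against solvent-treated controls.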

The test system of another data set is Uromyces appendiculatus. As to the kind of experiment: Example Q: in vivo preventive test on Uromyces appendiculatus (bean rust). As to conditions: Uromyces appendiculatus on bean plants, 500 ppm of active ingredient, grading 11 days after contamination. In a few lines:
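Saxa bean plants at 2-leaf stage, grown at 24° C., sprayed preventively with compound; 24 h later inoculated with U. appendiculatus spores (150 000 spores per mL). Percent efficacy graded 11 days after inoculation versus solvent-treated controls.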

The next data set deals with Pyrenophora teres. As to the kind of experiment: Example F: in vivo preventive test on Pyrenophora teres (barley), acetone/tween/DMSO preparation. As to conditions: 500 ppm of active ingredient, barley, grading 14 days after contamination. The method in brief: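 Barley ("Plaisant") grown at 22° C was sprayed at the 1-leaf stage (10 cm) with active ingredient in acetone/tween/DMSO/water, with solvent-only controls. After 24 h, leaves were inoculated with Pyrenophora teres spores (12 000 spores per mL) from 12-day cultures. % efficacy versus controls graded 14 days post-contamination.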

The next data set relates to Sphaerotheca fuliginea. The data set is described as follows: Example B: in vivo preventive test on Sphaerotheca fuliginea (powdery mildew on cucurbits), gherkin plants. As to conditions: 500 ppm of active ingredient, grading 12 days after contamination. In a few lines: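 Gherkin plants grown at 24 °C were sprayed with compound at the Z11 cotyledon stage; controls received acetone/tween/DMSO/water without active. 24 h later, cotyledons were inoculated by spraying with Sphaerotheca fuliginea spores (100 000 spores per mL).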

The subject of another data set is Septoria tritici. The data set is described as follows: Example I: in vivo preventive test on Septoria tritici (wheat), acetone/tween/DMSO preparation. As to conditions: 500 ppm of active ingredient, grading 24 days after contamination. The method in brief: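 Scipion wheat grown at 22° C, sprayed at 1-leaf stage (10 cm); controls received acetone/tween/DMSO/water without active. Inoculated 24 h later with S. tritici spores (500 000/mL), held 72 h at 18° C, 100% RH, then 21 days at 90% RH. % efficacy vs controls scored 24 days post-inoculation.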

For the molecule `Cn1nc(C(F)F)c(C(=O)NC2CCC3CCCC32)c1F` (stereo not shown) [Example 2], the Efficacy in the data set on Alternaria brassicae amounted to 70%; in the data set on Pyricularia oryzae it was 71%; with Botrytis cinerea it was 70%; in the data set with Puccinia recondita, 98%; in the data set with Uromyces appendiculatus, 98%. Also, the logP (as a rule, a log measure of how a compound divides between an organic and an aqueous phase) in data set [1] came out at 2.86.
For `CON(C(=O)c1cn(C)nc1C(F)F)C1CCC2CCCCC21` (stereo not shown) [Example 11], the Efficacy is 100% in the data set on Alternaria brassicae; 92% in the data set on Pyricularia oryzae; 100% with Pyrenophora teres; 100% in the data set on Sphaerotheca fuliginea; 94% in the data set on Puccinia recondita; 100% with Uromyces appendiculatus. This molecule gave an Efficacy in the data set with Septoria tritici of 71%. Further, in data set [1], the lipophilicity (logP) came out at 3.50.
Take `Cn1nc(C(F)F)c(C(=O)N(C2CC2)C2CCCC3CCCCC32)c1F` (mixture of isomers) [Example 31]: the Efficacy is on record as 100% with Alternaria brassicae; 80% in the data set on Pyricularia oryzae; 97% with Pyrenophora teres; 100% in the data set on Botrytis cinerea; 100% in the data set on Sphaerotheca fuliginea; 100% in the data set on Puccinia recondita. Also, the results for the Efficacy in the data set on Uromyces appendiculatus and in the data set with Septoria tritici were 100% and 96%, respectively.
